Assay results: patent EP2236511A2, “LIGANDS OF ALPHA-ADRENOCEPTORS AND OF DOPAMINE, HISTAMINE, IMIDAZOLINE AND SEROTONIN RECEPTORS AND THE USE THEREOF” (priority 2007, dated 2009)
Counter-ions that a name gives are not always drawn. Like-named read-outs stand apart in the source and are kept apart here.

Legend:
adrenergic receptor α1B = molecular target: T1, adrenergic receptor α1B (Rattus norvegicus, UniProt P15823); assay: Radioligand binding to adrenergic receptor α1B ([3H] Prazosin, rat liver membranes); details: for nH: Receptor α1B
T1 construct: membrane species from rat liver (rat of Wistar breed) are prepared; from tissue; host or cells: rat (Wistar) liver
T1 sequence (P15823 1-515): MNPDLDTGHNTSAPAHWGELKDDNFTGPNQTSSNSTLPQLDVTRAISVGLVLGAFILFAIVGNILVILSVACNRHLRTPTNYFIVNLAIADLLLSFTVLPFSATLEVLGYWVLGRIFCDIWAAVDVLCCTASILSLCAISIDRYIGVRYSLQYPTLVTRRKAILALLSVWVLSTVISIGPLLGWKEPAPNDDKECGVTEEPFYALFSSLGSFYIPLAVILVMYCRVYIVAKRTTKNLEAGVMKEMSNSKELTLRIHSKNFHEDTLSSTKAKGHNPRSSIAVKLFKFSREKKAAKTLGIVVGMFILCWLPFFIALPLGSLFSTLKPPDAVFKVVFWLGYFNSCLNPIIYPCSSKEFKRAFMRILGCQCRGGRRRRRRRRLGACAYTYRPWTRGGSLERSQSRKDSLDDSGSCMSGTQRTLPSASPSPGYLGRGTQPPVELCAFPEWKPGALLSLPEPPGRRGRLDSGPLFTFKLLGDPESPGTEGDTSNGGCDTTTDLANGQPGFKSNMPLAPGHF
Excerpt: Species heterogeneity of hepatic α1A-, α1B-, and α1C-subtypes. Biochem Biophys Res Commun. […] Prazosin is used as positive control.

human α2A receptor = molecular target: T2, human α2A receptor (Homo sapiens, UniProt P08913); assay: Radioligand binding to adrenergic receptor α2A ([3H] MK-912, Sf9 membranes); details: for nH: Receptor α2A
T2 construct: expressed in transfected cells; host or cells: Sf9
T2 sequence (P08913 1-465): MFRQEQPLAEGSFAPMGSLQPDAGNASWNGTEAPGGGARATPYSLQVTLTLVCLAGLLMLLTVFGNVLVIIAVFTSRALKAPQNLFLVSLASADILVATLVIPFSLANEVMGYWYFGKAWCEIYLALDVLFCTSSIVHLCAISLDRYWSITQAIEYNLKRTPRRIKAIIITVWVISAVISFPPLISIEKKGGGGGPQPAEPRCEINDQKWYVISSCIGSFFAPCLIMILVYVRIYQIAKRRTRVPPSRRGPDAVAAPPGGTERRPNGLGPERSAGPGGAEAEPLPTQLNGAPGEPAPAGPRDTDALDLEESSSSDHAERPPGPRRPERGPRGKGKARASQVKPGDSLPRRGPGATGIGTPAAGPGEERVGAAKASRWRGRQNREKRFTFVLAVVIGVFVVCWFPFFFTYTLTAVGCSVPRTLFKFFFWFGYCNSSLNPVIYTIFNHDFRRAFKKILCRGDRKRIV
Excerpt: For this purpose sDNA of human α2A receptor is expressed in Sf9 cells, as described in [Uhlen S, Porter AC and Neubig RR. […] J Pharmacol ExpTher. […] J Pharmacol ExpTher. […] Yohimbine is used as positive control.

imidazoline receptor I2 = assay: Radioligand binding to imidazoline receptor I2 ([3H] Idazoxan, rat brain membranes)
Protocol: For this purpose membrane species are prepared from rat (Wistar) brain homogenates by homogenization of them in glass homogenizer with the subsequent separation of plasmatic membranes from cell nuclei, mitochondrias and cell wreckages by differential centrifugation. […] After incubation the samples are filtered in vacuo on glass-microfiber filters G/F (Millipor, USA), filters are washed three times with cold solution of medium and radioactivity is measured by scintillation counter MicroBeta 340 (Perkin Elmer, USA). […] Idazoxan is used as positive control.
The tested compounds' binding to the receptor is determined by their ability to displace the radioligand and expressed in percent of displacement (%I). Values of %I are calculated according to the following equation: %I = (TA-CA)/(TA-NA)*100, [formula] wherein: TA - is the overall radioactivity in the presence of radioligand only, CA - is the radioactivity in the presence of radioligand and tested compound and NA - is a radioactivity in the presence of radioligand and Idazoxan (1 µM).

human H2 receptor = molecular target: T3, human H2 receptor (Homo sapiens, UniProt P25021); assay: Radioligand binding to histamine receptor H2 ([125I] Aminopotentidine, CHO-K1 membranes); details: for inhibition at 10 µM: read-out: Histamine receptors, % inhibition H2
T3 construct: expressed in transfected cells; host or cells: CHO-K1
Excerpt: Proc Natl Acad Sci USA. 87(5): 1658-1662, 1990]. […] Proc Natl Acad Sci USA. 87(5): 1658-1662, 1990]. […] Tiotidine is used as positive control.

[1] = molecular target: T4, recombinant human 5-HT6 receptor (Homo sapiens, UniProt P50406); assay: Radioligand binding to serotonin receptor 5-HT6 ([3H] Lysergic acid diethylamide, HeLa membranes)
T4 construct: expressed in transfected cells; host or cells: HeLa
Excerpt: Mol Pharmacol. 43:320-327, 1993]. […] Methiothepin is used as positive control.

adrenergic receptor α1A = molecular target: T5, adrenergic receptor α1A (Rattus norvegicus, UniProt P43140); assay: Radioligand binding to adrenergic receptor α1A ([3H] Prazosin, rat submaxillary gland membranes); details: for nH: Receptor α1A
T5 construct: membrane species from rat submaxillary glands (rat of Wistar breed) are prepared; from tissue; host or cells: rat (Wistar) submaxillary gland
T5 sequence (P43140 1-466): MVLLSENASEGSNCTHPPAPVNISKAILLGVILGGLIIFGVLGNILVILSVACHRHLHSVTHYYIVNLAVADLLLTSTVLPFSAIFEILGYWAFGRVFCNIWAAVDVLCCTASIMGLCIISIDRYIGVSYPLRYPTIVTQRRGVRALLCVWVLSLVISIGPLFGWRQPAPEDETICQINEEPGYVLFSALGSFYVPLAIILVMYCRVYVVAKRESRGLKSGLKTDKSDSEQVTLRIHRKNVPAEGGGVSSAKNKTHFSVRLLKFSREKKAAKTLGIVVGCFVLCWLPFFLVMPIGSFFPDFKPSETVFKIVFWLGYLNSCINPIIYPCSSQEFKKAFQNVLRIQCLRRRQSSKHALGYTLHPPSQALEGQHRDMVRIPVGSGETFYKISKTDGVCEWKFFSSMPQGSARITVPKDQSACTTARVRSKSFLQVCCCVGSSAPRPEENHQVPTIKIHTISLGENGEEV
Protocol: Determination of investigated compounds' binding to α1A receptor was carried out according to the method described in [Michel AD, Loury DN and Whiting R1. Identification of a single α1A-adrenoceptor corresponding to the α1A-subtype in rat submaxillary gland. […] Prazosin is used as positive control.

[2] = molecular target: T6, recombinant human 5-HT2C receptor (Homo sapiens, UniProt P28335); assay: Radioligand binding to serotonin receptor 5-HT2C ([3H] Mesulergine, CHO-K1 membranes); details: for nH: 5-HT2C
T6 construct: expressed in transfected cells; host or cells: CHO-K1
T6 sequence (P28335 33-458): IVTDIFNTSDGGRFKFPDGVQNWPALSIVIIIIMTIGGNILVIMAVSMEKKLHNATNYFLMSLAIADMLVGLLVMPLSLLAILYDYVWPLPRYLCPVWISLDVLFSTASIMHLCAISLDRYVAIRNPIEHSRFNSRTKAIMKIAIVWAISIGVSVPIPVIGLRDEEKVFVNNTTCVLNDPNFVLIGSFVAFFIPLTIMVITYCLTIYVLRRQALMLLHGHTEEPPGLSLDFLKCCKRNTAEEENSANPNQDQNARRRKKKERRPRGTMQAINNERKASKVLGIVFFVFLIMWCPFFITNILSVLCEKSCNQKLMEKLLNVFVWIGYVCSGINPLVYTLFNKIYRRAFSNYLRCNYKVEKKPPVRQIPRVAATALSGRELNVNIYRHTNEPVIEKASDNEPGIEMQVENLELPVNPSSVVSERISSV
Excerpt: J Neurochem. 69: 1449 - 1458, 1997]. […] SB242084 is used as positive control.

[3] = read-out: α-Adrenoceptor, % inhibition α1B
[4] = read-out: α-Adrenoceptor, % inhibition α2A
[5] = read-out: α-Adrenoceptor, % inhibition α1A
[6] = last block of Table 11: receptor printed 5-HT6 in r18, cell blank in r19-r21

T3 sequence (P25021 whole entry): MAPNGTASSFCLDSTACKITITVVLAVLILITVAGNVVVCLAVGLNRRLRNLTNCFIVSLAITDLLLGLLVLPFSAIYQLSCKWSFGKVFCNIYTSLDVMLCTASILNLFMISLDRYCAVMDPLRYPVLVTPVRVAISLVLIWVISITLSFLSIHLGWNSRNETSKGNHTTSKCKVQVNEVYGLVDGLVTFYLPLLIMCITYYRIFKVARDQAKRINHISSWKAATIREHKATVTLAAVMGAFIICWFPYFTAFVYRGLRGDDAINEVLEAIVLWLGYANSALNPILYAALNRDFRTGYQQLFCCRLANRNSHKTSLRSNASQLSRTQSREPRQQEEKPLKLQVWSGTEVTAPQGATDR
T4 sequence (P50406 whole entry): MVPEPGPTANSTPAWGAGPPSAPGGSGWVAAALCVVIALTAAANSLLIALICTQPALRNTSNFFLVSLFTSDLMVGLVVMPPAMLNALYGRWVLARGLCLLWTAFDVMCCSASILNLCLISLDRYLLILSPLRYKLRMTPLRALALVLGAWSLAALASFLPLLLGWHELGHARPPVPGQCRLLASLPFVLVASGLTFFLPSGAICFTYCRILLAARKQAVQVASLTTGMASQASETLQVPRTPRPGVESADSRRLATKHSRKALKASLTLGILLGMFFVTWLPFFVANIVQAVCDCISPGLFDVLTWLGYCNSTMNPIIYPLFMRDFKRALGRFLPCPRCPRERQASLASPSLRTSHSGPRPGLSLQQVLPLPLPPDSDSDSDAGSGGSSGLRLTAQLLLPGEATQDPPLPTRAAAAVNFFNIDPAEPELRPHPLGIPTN

SMILES	inhibition at 10 µM (adrenergic receptor α1B; [3])	inhibition at 10 µM (human α2A receptor; [4])	% inhibition (imidazoline receptor I2; 10 µM ligand)	inhibition at 10 µM (human H2 receptor)	inhibition at 10 µM (adrenergic receptor α1A; [5])	IC50 (imidazoline receptor I2)	Ki (imidazoline receptor I2)	nH (adrenergic receptor α1B)	nH (human α2A receptor)	nH (adrenergic receptor α1A)	nH ([1]; 5-HT6)	further results
Cc1ccc2c(c1)[C@@H]1CN(C)CCC[C@@H]1N2CCc1cccnc1 (relative stereo) [1.6.1(1)·3HCl]	94%	84%	80%	48%	90%	–	–	–	–	–	–	inhibition at 1 µM ([1]; read-out: 5-HT6 % inhibition): 84%; inhibition at 1 µM ([2]; read-out: 5-HT2C % inhibition): 95%
Cc1ccc2c(c1)[C@@H]1CN(C)CCC[C@@H]1N2CCc1ccc(C)nc1 (relative stereo) [1.6.1(2)·3HCl]	93%	82%	80%	66%	–	–	–	–	–	–	–	inhibition at 1 µM ([1]; read-out: 5-HT6 % inhibition): 76%; inhibition at 10 µM ([1]; read-out: 5-HT6 % inhibition): -10%; inhibition at 10 µM ([2]; read-out: 5-HT2C % inhibition): 4%
Cc1ccc2c(c1)c1c(n2CCc2ccccc2)CCN(C)C1 [1.1.2(1-2)·HCl, 2,8-dimethyl-5-phenethyl-1,2,3,4-tetrahydro-1H-pyrido[4,3-b]indole hydrochloride]	101%	95%	93%	102%	99%	268 nM	179 nM	–	–	–	–	–
Cc1ccc(CCn2c3c(c4cc(C)ccc42)CN(C)CC3)cc1 [1.1.2(1-3), 2,8-dimethyl-5-[2-(4-methylphenyl)-ethyl]-1,2,3,4-tetrahydro-1H-pyrido[4,3-b]indole]	–	–	93%	–	–	–	–	1,13	1.12	1,26	–	5-HT2C % inhibition ([2]; 10 µM ligand): 98%
Cc1ccc2c(c1)c1c(n2CCc2ccccn2)CCN(C)C1 [1.1.2(2-3)·2HCl]	98%	93%	88%	82%	81%	–	–	–	–	–	0.744	IC50 [1]: 2.14 nM; Ki [1]: 1.23 nM; nH [1, 6]: 0.655; inhibition at 1 µM ([2]; read-out: 5-HT2C % inhibition): 96%
Cc1ccc2c(c1)c1c(n2CCc2ccc(C)nc2)CCN(C)C1 [1.1.2(4-2)·2HCl]	–	–	98%	–	–	310 nM	210 nM	1.54	0.828	1.12	–	inhibition at 10 µM (adrenergic receptor α1B; 10 µM ligand, read-out: α-Adrenoceptor, % inhibition α1B): 101%; inhibition at 10 µM (human α2A receptor; 10 µM ligand, read-out: α-Adrenoceptor, % inhibition α2A): 95%; inhibition at 10 µM ([1]; 10 µM ligand, read-out: 5-HT6 % inhibition): 90%; inhibition at 10 µM (adrenergic receptor α1A; 10 µM ligand, read-out: α-Adrenoceptor, % inhibition α1A): 97%; inhibition at 10 µM ([2]; 10 µM ligand, read-out: 5-HT2C % inhibition): 76%
Cc1ccc2c(c1)c1c(n2CCc2ccccn2)CCCN(C)C1 [1.2.2(2-2)]	–	–	80%	–	–	–	–	–	–	–	–	α-Adrenoceptor, % inhibition α1B (adrenergic receptor α1B; 10 µM ligand): 80%; α-Adrenoceptor, % inhibition α2A (human α2A receptor; 10 µM ligand): 90%; 5-HT6 % inhibition ([1]; 10 µM ligand): 21%; α-Adrenoceptor, % inhibition α1A (adrenergic receptor α1A; 10 µM ligand): 64%
CN1CCc2c(c3ccccc3n2Cc2ccccc2)C1 [1.9(1)·1/2NDSA, bis-(5-benzyl-2-methyl-2,3,4,5-tetrahydro-1H-pyrido[4,3-b]indole) naphthalene-1,5-disulfonate]	–	–	–	–	–	169 nM	110 nM	0,956	1,13	1,08	1.07	inhibition at 3 µM (adrenergic receptor α1B; [3]): 62%; inhibition at 0.3 µM (human α2A receptor; [4]): 73%; % inhibition (imidazoline receptor I2; 0.3 µM ligand): 87(0.3 µM) %; Histamine receptors, % inhibition H2 (human H2 receptor; 10 µM ligand): 97%; inhibition at 0.3 µM ([1]; read-out: 5-HT6 % inhibition): 78%; inhibition at 1 µM (adrenergic receptor α1A; [5]): 67%; nH [2]: 0.987
CN1CCc2c(c3ccccc3n2Cc2ccccc2)C1.Cl [1.9(1)·HCl, 5-benzyl-2-methyl-2,3,4,5-tetrahydro-1H-pyrido[4,3-b]indole hydrochloride]	70%	100%	–	97%	70%	–	–	–	–	–	1.04	% inhibition (imidazoline receptor I2; 3 µM ligand): 75 (3 µM) %; IC50 (imidazoline receptor I2; hydrochloride): 994 nM; Ki (imidazoline receptor I2; hydrochloride): 662 nM; IC50 [1]: 110 nM; Ki [1]: 63.2 nM; nH [1, 6]: 1.32; inhibition at 10 µM ([1]; read-out: 5-HT6 % inhibition): 71%; nH [2]: 1.21; inhibition at 0.1 µM ([2]; read-out: 5-HT2C % inhibition): 79%; inhibition at 10 µM ([2]; read-out: 5-HT2C % inhibition): 97%
